# Experimental data from ChEMBL document CHEMBL1150785 (Antimicrob Agents Chemother, 2007).
# Legend:
# Assay type in all cases: functional
# [1] = system: Mycobacterium tuberculosis; assay: Antimicrobial activity against Mycobacterium tuberculosis H37Ra assessed as early bactericidal activity
# [2] = system: Mycobacterium tuberculosis; assay: Antimicrobial activity against Mycobacterium tuberculosis H37Ra
# [3] = system: Mycobacterium tuberculosis; assay: Antimicrobial activity against Mycobacterium tuberculosis in mouse assessed as microbial kill activity
# [4] = system: Mycobacterium tuberculosis; assay: Antimicrobial activity against Mycobacterium tuberculosis H37Ra assessed as microbial kill activity
compound,measurement,setting,value
NNC(=O)c1ccncc1 [ISONIAZID],log10CFU/ml/day,[1],0.9
same,MIC,[2],0.0156 µg/mL
same,log10cfu,[3],1.3
same,log10CFU/ml,[4],2.89
